Data taken from patent US9271960B2, “Tetrahydrocarbazoles as active agents for inhibiting VEGF production by translational control” (PTC Therapeutics, Inc., priority 2004, dated 2016).

system: VEGF; test: Hypoxia-inducible endogenous VEGF expression ELISA in HeLa cells; assay type: cell-based; settings: Homo sapiens, HeLa, compounds 1-155, hypoxic conditions (1% O2), VEGF protein by ELISA, read-out: ELISA Activity
Protocol: The ability of compounds of the invention to modulate hypoxia-inducible endogenous VEGF expression is analyzed as follows. VEGF protein levels are monitored by an ELISA assay (R&D Systems). Briefly, HeLa cells are cultured for 24-48 hours under hypoxic conditions (1% O2, 5% CO2, balanced with nitrogen) in the presence or absence of a compound of the invention. The conditioned media is then assayed by ELISA, and the concentration of VEGF is calculated from the standard ELISA curve of each assay.
A dose-response analysis is performed using the ELISA assay and conditions described above. A series of different concentrations (e.g., seven) are analyzed. In parallel, a dose-response cytotoxicity assay is performed using Cell Titer Glo (Promega) under the same conditions as the ELISA to ensure that the inhibition of VEGF expression is not due to cytotoxicity. Dose-response curves are plotted using percentage inhibition versus concentration of the compound, and EC50 and CC50 values are generated for each compound with the maximal inhibition set as 100% and the minimal inhibition as 0%.
Compounds 156-188 in Table 1 are commercially available. In Table 1, each of the represented compounds is followed by one to five stars.

Compound | EC50
Brc1ccc2[nH]c3c(c2c1)CCCC3n1cc2ccsc2c1 (stereo not drawn) [Compound 1, 6-Bromo-1-thieno[2,3-c]pyrrol-5-yl-2,3,4,9-tetrahydro-1H-carbazole] | < 10 nM
Brc1ccc2[nH]c3c(c2c1)CCCC3Nc1ccccc1 (stereo not drawn) [Compound 2, (6-Bromo-2,3,4,9-tetrahydro-1H-carbazol-1-yl)-phenyl-amine] | < 10 nM
Clc1ccc(NC2CCCc3c2[nH]c2ccc(Br)cc32)cc1 (stereo not drawn) [Compound 3, (6-Bromo-2,3,4,9-tetrahydro-1H-carbazol-1-yl)-(4-chloro-phenyl)-amine] | < 10 nM
COc1ccc(NC2CCCc3c2[nH]c2ccc(Br)cc32)cc1 (stereo not drawn) [Compound 4, (6-Bromo-2,3,4,9-tetrahydro-1H-carbazol-1-yl)-(4-methoxy-phenyl)-amine] | < 10 nM
O=C1c2sccc2CN1C1CCCc2c1[nH]c1ccc(Br)cc21 (stereo not drawn) [Compound 5, 5-(6-Bromo-2,3,4,9-tetrahydro-1H-carbazol-1-yl)-4,5-dihydro-thieno[2,3-c]pyrrol-6-one] | < 10 nM
FC(F)(F)c1ccc(NC2CCCc3c2[nH]c2ccc(Br)cc32)cc1 (stereo not drawn) [Compound 6, (6-Bromo-2,3,4,9-tetrahydro-1H-carbazol-1-yl)-(4-trifluoromethyl-phenyl)-amine] | < 10 nM
Brc1ccc2[nH]c3c(c2c1)CCCC3N1Cc2ccccc2C1 (stereo not drawn) [Compound 7, 6-Bromo-1-(1,3-dihydro-isoindol-2-yl)-2,3,4,9-tetrahydro-1H-carbazole] | < 10 nM
CC(C)c1ccc(NC2CCCc3c2[nH]c2ccc(Br)cc32)cc1 (stereo not drawn) [Compound 8, (6-Bromo-2,3,4,9-tetrahydro-1H-carbazol-1-yl)-(4-isopropyl-phenyl)-amine] | < 10 nM
Brc1ccc2[nH]c3c(c2c1)CCCC3Nc1ccc(Oc2ccccc2)cc1 (stereo not drawn) [Compound 9, (6-Bromo-2,3,4,9-tetrahydro-1H-carbazol-1-yl)-(4-phenoxy-phenyl)-amine] | < 10 nM
COc1cccc(NC2CCCc3c2[nH]c2ccc(Br)cc32)c1 (stereo not drawn) [Compound 10, (6-Bromo-2,3,4,9-tetrahydro-1H-carbazol-1-yl)-(3-methoxy-phenyl)-amine] | < 10 nM
Cc1ccc2[nH]c3c(c2c1)CCCC3Nc1ccccc1 (stereo not drawn) [Compound 11, (6-Methyl-2,3,4,9-tetrahydro-1H-carbazol-1-yl)-phenyl-amine] | < 10 nM
Fc1cccc(NC2CCCc3c2[nH]c2ccc(Br)cc32)c1 (stereo not drawn) [Compound 12, (6-Bromo-2,3,4,9-tetrahydro-1H-carbazol-1-yl)-(3-fluoro-phenyl)-amine] | < 10 nM
CC(=O)n1c2c(c3cc(Br)ccc31)CCCC2n1cccc1 (stereo not drawn) [Compound 13, 1-(6-Bromo-1-pyrrol-1-yl-1,2,3,4-tetrahydro-carbazol-9-yl)ethanone] | < 10 nM
FC(F)(F)c1ccc2[nH]c3c(c2c1)CCCC3Nc1ccccc1 (stereo not drawn) [Compound 14, Phenyl-(6-trifluoromethyl-2,3,4,9-tetrahydro-1H-carbazol-1-yl)-amine] | < 10 nM
Brc1ccc2[nH]c3c(c2c1)CCCC3c1ccccc1 (stereo not drawn) [Compound 15, 6-Bromo-1-phenyl-2,3,4,9-tetrahydro-1H-carbazole] | < 10 nM
COc1cccc(C2CCCc3c2[nH]c2ccc(Br)cc32)c1 (stereo not drawn) [Compound 16, 6-Bromo-1-(3-methoxy-phenyl)-2,3,4,9-tetrahydro-1H-carbazole] | < 10 nM
Fc1ccccc1NC1CCCc2c1[nH]c1ccc(Br)cc21 (stereo not drawn) [Compound 17, (6-Bromo-2,3,4,9-tetrahydro-1H-carbazol-1-yl)-(2-fluoro-phenyl)-amine] | < 10 nM
Brc1ccc2[nH]c3c(c2c1)CCCC3Nc1ccc2c(c1)OCO2 (stereo not drawn) [Compound 18, Benzo[1,3]dioxol-5-yl-(6-bromo-2,3,4,9-tetrahydro-1H-carbazol-1-yl)-amine] | < 10 nM
FC(F)(F)Oc1ccc(NC2CCCc3c2[nH]c2ccc(Br)cc32)cc1 (stereo not drawn) [Compound 19, (6-Bromo-2,3,4,9-tetrahydro-1H-carbazol-1-yl)-(4-trifluoromethoxy-phenyl)-amine] | < 10 nM
Clc1cccc(NC2CCCc3c2[nH]c2ccc(Br)cc32)c1 (stereo not drawn) [Compound 20, (6-Bromo-2,3,4,9-tetrahydro-1H-carbol-1-yl)-(3-chloro-phenyl)-amine] | < 10 nM
O=C(NC1CCCc2c1[nH]c1ccc(Br)cc21)c1ccccc1 (stereo not drawn) [Compound 21, N-(6-Bromo-2,3,4,9-tetrahydro-1H-carbazol-1-yl)-benzamide] | < 10 nM

Compound | EC50
O=C(NC1CCCc2c1[nH]c1ccc(Br)cc21)c1cccc(Cl)c1 (stereo not drawn) [Compound 22, N-(6-Bromo-2,3,4,9-tetrahydro-1H-carbazol-1-yl)-3-chloro-benzamide] | < 10 nM
Cc1cc(C)cc(NC2CCCc3c2[nH]c2ccc(Br)cc32)c1 (stereo not drawn) [Compound 23, (6-Bromo-2,3,4,9-tetrahydro-1H-carbazol-1-yl)-(3,5-dimethyl-phenyl)-amine] | 10 to 40 nM
Fc1ccc(NC2CCCc3c2[nH]c2ccc(Br)cc32)cc1 (stereo not drawn) [Compound 24, (6-Bromo-2,3,4,9-tetrahydro-1H-carbazol-1-yl)-(4-fluoro-phenyl)-amine] | 10 to 40 nM
O=C1c2ccccc2CN1C1CCCc2c1[nH]c1ccc(Br)cc21 (stereo not drawn) [Compound 25, 2-(6-Bromo-2,3,4,9-tetrahydro-1H-carbazol-1-yl)-2,3-dihydro-isoindol-1-one] | 10 to 40 nM
COC(=O)c1ccn(C2CCCc3c2[nH]c2ccc(Br)cc32)c1 (stereo not drawn) [Compound 26, 1-(6-Bromo-2,3,4,9-tetrahydro-1H-carbazol-1-yl)-1H-pyrrole-3-carboxylic acid methyl ester] | 10 to 40 nM
Brc1ccc2[nH]c3c(c2c1)CCCC3NC1CCC(c2ccccc2)CC1 (stereo not drawn) [Compound 27, (6-Bromo-2,3,4,9-tetrahydro-1H-carbazol-1-yl)-(4-phenyl-cyclohexyl)-amine] | 10 to 40 nM
Brc1ccc2[nH]c3c(c2c1)CCCC3Nc1ccc(-c2ccccc2)cc1 (stereo not drawn) [Compound 28, Biphenyl-4-yl-(6-bromo-2,3,4,9-tetrahydro-1H-carbazol-1-yl)-amine] | 10 to 40 nM
Clc1ccccc1NC1CCCc2c1[nH]c1ccc(Br)cc21 (stereo not drawn) [Compound 29, (6-Bromo-2,3,4,9-tetrahydro-1H-carbazol-1-yl)-(2-chloro-phenyl)-amine] | 10 to 40 nM
O=C(NC1CCCc2c1[nH]c1ccc(Br)cc21)c1cccc(Oc2ccccc2)c1 (stereo not drawn) [Compound 30, N-(6-Bromo-2,3,4,9-tetrahydro-1H-carbazol-1-yl)-3-phenoxy-benzamide] | 10 to 40 nM
Brc1ccc2[nH]c3c(c2c1)CCCC3Nc1cnccn1 (stereo not drawn) [Compound 31, (6-Bromo-2,3,4,9-tetrahydro-1H-carbazol-1-yl)-pyrazin-2-yl-amine] | 10 to 40 nM
Fc1cccc(NC2CCCc3c2[nH]c2ccc(Br)cc32)c1F (stereo not drawn) [Compound 32, (6-Bromo-2,3,4,9-tetrahydro-1H-carbazol-1-yl)-(2,3-difluoro-phenyl)-amine] | 10 to 40 nM
Brc1ccc2[nH]c3c(c2c1)CCCCC3Nc1ccccc1 (stereo not drawn) [Compound 33, (2-Bromo-5,6,7,8,9,10-hexahydro-cyclohepta[b]indol-6-yl)-phenyl-amine] | 10 to 40 nM
FC(F)(F)Oc1ccc2[nH]c3c(c2c1)CCCC3Nc1ccccc1 (stereo not drawn) [Compound 34, Phenyl-(6-trifluoromethoxy-2,3,4,9-tetrahydro-1H-carbazol-1-yl)-amine] | 10 to 40 nM
O=C(NC1CCCc2c1[nH]c1ccc(Br)cc21)c1ccc(Oc2ccccc2)cc1 (stereo not drawn) [Compound 35, N-(6-Bromo-2,3,4,9-tetrahydro-1H-carbazol-1-yl)-4-phenoxy-benzamide] | 40 to 200 nM
Clc1ccc(NC2CCCc3c2[nH]c2ccc(Br)cc32)cc1Cl (stereo not drawn) [Compound 36, (6-Bromo-2,3,4,9-tetrahydro-1H-carbazol-1-yl)-(3,4-dichloro-phenyl)-amine] | 40 to 200 nM
Clc1ccc2[nH]c3c(c2c1)CCCC3n1cccc1 (stereo not drawn) [Compound 37, 6-Chloro-1-pyrrol-1-yl-2,3,4,9-tetrahydro-1H-carbazole] | 40 to 200 nM
O=Cc1ccn(C2CCCc3c2[nH]c2ccc(Br)cc32)c1 (stereo not drawn) [Compound 38, 1-(6-Bromo-2,3,4,9-tetrahydro-1H-carbazol-1-yl)-1H-pyrrole-3-carbaldehyde] | 40 to 200 nM
COc1cccc(C(=O)NC2CCCc3c2[nH]c2ccc(Br)cc32)c1OC (stereo not drawn) [Compound 39, N-(6-Bromo-2,3,4,9-tetrahydro-1H-carbazol-1-yl)-2,3-dimethoxy-benzamide] | 40 to 200 nM
Brc1ccc2[nH]c3c(c2c1)CCCC3Nc1ccc(N2CCOCC2)cc1 (stereo not drawn) [Compound 40, (6-Bromo-2,3,4,9-tetrahydro-1H-carbazol-1-yl)-(4-morpholin-4-yl-phenyl)-amine] | 40 to 200 nM
O=C1c2ccccc2C(=O)N1C1CCCc2c1[nH]c1ccc(Br)cc21 (stereo not drawn) [Compound 41, 2-(6-Bromo-2,3,4,9-tetrahydro-1H-carbazol-1-yl)-isoindole-1,3-dione] | 40 to 200 nM

same assay, conditions: purchased compounds 156-188, hypoxic conditions, VEGF protein by ELISA, read-out: ELISA Activity

Compound | EC50
3-(8-Cyclohexyl-1,2,3a,4,5,6- hexahydro-pyrazino[3,2,1- jk]carbazol-3-yl)-propionic acid [Compound 183] | > 1000 nM
3-[(2,3,4,9-Tetrahydro- 1H-carbazol-1-ylamino)- methylene]-1,3-dihydro- indol-2-one [Compound 158] | 200 to 1000 nM

same assay, conditions: purchased compounds 156-188, hypoxic conditions, VEGF protein by ELISA, read-out: ELISA EC50

Compound | EC50
3-(8-Cyclohexyl-1,2,3a,4,5,6- hexahydro-pyrazino[3,2,1- jk]carbazol-3-yl)-propionic acid [Compound 183] | > 10000 nM
3-[(2,3,4,9-Tetrahydro- 1H-carbazol-1-ylamino)- methylene]-1,3-dihydro- indol-2-one [Compound 158] | 267 nM
